Test results taken from patent publication US10947237B2, “Antimicrobial compounds and methods of making and using the same” (BIOVERSYS AG, priority 2015, dated 2021).

What was measured:
[1] = tested on: Staphylococcus aureus (S. aureus) 11540 strain; assay: standard microdilution assay, minimum inhibitory concentration (MIC); type: cell-based
Protocol: (§1) The in vitro activity of the compounds of the present disclosure can be determined. Antimicrobial testing is typically performed to determine the minimum inhibitory concentration (MIC). Minimum inhibitory concentrations (MICs) are determined by the microdilution method in a final volume of 100 μl according to protocols outlined by The Clinical and Laboratory Standards Institute (CLSI). Performance standards for reference strains are assessed within the same experimental design to maintain quality control. See, for example, Clinical Laboratory Standards Institute: Methods for dilution antimicrobial susceptibility tests for bacteria that grow aerobically M7-A8. Approved Standard-Eighth Edition. Wayne, Pa.: CLSI; December 2008; and Clinical Laboratory Standards Institute: Performance Standards for Antimicrobial Susceptibility Testing M100-S20; Approved Standard-Twentieth Edition. Wayne, Pa.: CLSI; June 2010. The compounds of the present disclosure were tested for antimicrobial activity. The Compounds 1-149 were run against Eschericia coli (E. Coli) strain ATCC25922 and against Staphylococcus aureus (S. aureus) 11540 strain using a standard microdilution assay to determine minimum inhibitory concentrations (MICs). […] It will be recognized by one skilled in the art that the compounds can be assessed against other bacterial organisms and that the presentation of data for activity against Eschericia coli and Staphylococcus aureus are illustrative and in no way is intended to limit the scope of the present disclosure. The compounds of the present disclosure can be assayed against a range of other microorganisms depending upon the performance activity desired to be gathered. Furthermore, the “+” and “−” representation and the selection of a cutoff value of 16 micrograms/mL is also illustrative and in no way is intended to limit the scope of the present disclosure.

[2] = tested on: Eschericia coli (E. Coli) strain ATCC25922; assay: as above; type: cell-based; details: Escherichia coli
Protocol: as §1

MIC ([1]; Table 2, 11540 strain)	MIC ([2]; Table 2, strain ATCC25922)	MIC ([1]; Table 2a)	MIC ([2]; ATCC25922, Table 2a)	Structure (SMILES)
≤ 16 µg/mL	≤ 16 µg/mL			C[C@H](N)CCCc1cc(Cl)c(F)c(-c2cc3cn(-c4ccc([C@@H]5CCC[C@@H](CCNC(=N)N)C5)cc4)c(=O)nc3[nH]2)c1 [Compound 34]
≤ 16 µg/mL	≤ 16 µg/mL			C[C@H](N)CCCc1cc(Cl)c(F)c(-c2cc3cn(-c4ccc(CO[C@H](CO)CCNC(=N)N)cc4)c(=O)nc3[nH]2)c1 [Compound 59]
≤ 16 µg/mL	≤ 16 µg/mL			COc1ccc(CNc2ncc(CC[C@@H](CCNC(=N)N)NCc3ccc(-n4cc5cc(-c6cc(CCC[C@H](C)N)cc(Cl)c6F)[nH]c5nc4=O)cc3)s2)cc1 [Compound 25]
≤ 16 µg/mL	≤ 16 µg/mL			C[C@H](N)CCCc1cc(Cl)c(F)c(-c2cc3cn(-c4ccc([C@H]5CCC[C@H](CCNc6nc7ccccc7[nH]6)N5)cc4)c(=O)nc3[nH]2)c1 [Compound 44]
≤ 16 µg/mL	≤ 16 µg/mL			COc1ccc(NC[C@@H](CCNC(=N)N)NCc2ccc(-n3cc4cc(-c5cc(CCC[C@H](C)N)cc(Cl)c5F)[nH]c4nc3=O)cc2)nn1 [Compound 39]
> 16 µg/mL	> 16 µg/mL			N=C(N)NCC[C@@H]1C[C@H](CN)O[C@@H](c2ccc(-n3cc4cc(C5CCNC5)[nH]c4nc3=O)cc2)C1 (stereo partly drawn) [Compound 98]
≤ 16 µg/mL	≤ 16 µg/mL			N=C(N)NCC[C@H](CNC(=N)N)OCc1ccc(-n2cc3cc(C4CCNC4)[nH]c3nc2=O)cc1 (stereo partly drawn) [Compound 129]
> 16 µg/mL	≤ 16 µg/mL			N=C(N)NCC[C@H]1CN(c2ccc(-n3cc4cc(CCNC5CCNCC5)[nH]c4nc3=O)cc2)CCO1 [Compound 144]
≤ 16 µg/mL	≤ 16 µg/mL			Cc1nnc(NC[C@@H](CCNC(=N)N)NCc2ccc(-n3cc4cc(-c5cc(CCC[C@H](C)N)cc(Cl)c5F)[nH]c4nc3=O)cc2)[nH]1 [Compound 55]
≤ 16 µg/mL	≤ 16 µg/mL			Cc1cn(CC[C@@H]2CCC[C@@H](c3ccc(-n4cc5cc(-c6cc(CCC[C@H](C)N)cc(Cl)c6F)[nH]c5nc4=O)cc3)N2)c(=O)o1 [Compound 8]
> 16 µg/mL	> 16 µg/mL			C[C@H](N)CCCc1cc(Cl)c(F)c(-c2cc3cn(-c4ccc([C@@H]5CCC[C@@H](Cc6cnc(N)o6)N5)cc4)c(=O)nc3[nH]2)c1 [Compound 10]
≤ 16 µg/mL	≤ 16 µg/mL			C[C@H](N)CCCc1cc(Cl)c(F)c(-c2cc3cn(-c4ccc([C@@H]5CCC[C@@H](CCNC(=N)C6CC6)N5)cc4)c(=O)nc3[nH]2)c1 [Compound 83]
≤ 16 µg/mL	> 16 µg/mL			C[C@H](N)CCCc1cc(Cl)c(F)c(-c2cc3cn(-c4ccc([C@H]5CCC[C@H](CCNc6ncccn6)N5)cc4)c(=O)nc3[nH]2)c1 [Compound 26]
≤ 16 µg/mL	≤ 16 µg/mL			COc1ccnc(NC[C@@H](CCNC(=N)N)NCc2ccc(-n3cc4cc(-c5cc(CCC[C@H](C)N)cc(Cl)c5F)[nH]c4nc3=O)cc2)c1 [Compound 47]
> 16 µg/mL	≤ 16 µg/mL			N=C(N)NCC[C@H]1CC(N)C[C@H](c2ccc(-n3cc4cc(C5CCNC5)[nH]c4nc3=O)cc2)O1 (stereo partly drawn) [Compound 121]
> 16 µg/mL	> 16 µg/mL			N=C(N)NCC[C@H](CF)OCc1ccc(-n2cc3cc(C4CCNC4)[nH]c3nc2=O)cc1 (stereo partly drawn) [Compound 136]
≤ 16 µg/mL	≤ 16 µg/mL			N=C(N)NCC[C@H]1CC(N)C[C@H](c2ccc(-n3cc4cc(CCNC5CCNCC5)[nH]c4nc3=O)cc2)O1 (stereo partly drawn) [Compound 122]
≤ 16 µg/mL	≤ 16 µg/mL			C[C@H](N)CCCc1cc(Cl)c(F)c(-c2cc3cn(-c4ccc([C@@H]5CCC[C@@H](CNCc6cc[nH]c(=O)c6)N5)cc4)c(=O)nc3[nH]2)c1 [Compound 16]
≤ 16 µg/mL	≤ 16 µg/mL			C[C@H](N)CCCc1cc(Cl)c(F)c(-c2cc3cn(-c4ccc(N5CCO[C@@H](CCNC(=N)N)C5)cc4)c(=O)nc3[nH]2)c1 [Compound 134]
≤ 16 µg/mL	≤ 16 µg/mL			C[C@H](N)CCCc1cc(Cl)c(F)c(-c2cc3cn(-c4ccc([C@H]5CC[C@H](CCNC(=N)N)O5)cc4)c(=O)nc3[nH]2)c1 [Compound 74]
≤ 16 µg/mL	≤ 16 µg/mL			CC(=N)NCC[C@@H]1CCC[C@@H](c2ccc(-n3cc4cc(-c5cc(CCC[C@@H](N)CO)cc(Cl)c5F)[nH]c4nc3=O)cc2)N1 [Compound 151]
≤ 16 µg/mL	≤ 16 µg/mL			C[C@H](N)CCCc1cc(Cl)c(F)c(-c2cc3cn(-c4ccc([C@@H]5C/C(=C/CNC(=N)N)CC(CO)O5)cc4)c(=O)nc3[nH]2)c1 (stereo partly drawn) [Compound 89]
		≤ 16 µg/mL	≤ 16 µg/mL	CC(=N)NCC[C@@H](CN)OCc1ccc(-n2cc3cc(-c4cc(CCC[C@H](C)N)cc(Cl)c4F)[nH]c3nc2=O)cc1 [Compound 178]

MIC ([1]; Table 2, 11540 strain)	MIC ([2]; Table 2, strain ATCC25922)	MIC ([1]; Table 2a)	MIC ([2]; ATCC25922, Table 2a)	Structure (SMILES)
> 16 µg/mL	> 16 µg/mL			N=C(N)NCC[C@H](CF)NCc1ccc(-n2cc3cc(C4CCNC4)[nH]c3nc2=O)cc1 (stereo partly drawn) [Compound 126]
≤ 16 µg/mL	≤ 16 µg/mL			C[C@H](N)CCCc1cc(Cl)c(F)c(-c2cc3cn(-c4ccc([C@H]5CCC[C@H](CCNC(=N)c6ccccn6)N5)cc4)c(=O)nc3[nH]2)c1 [Compound 3]
≤ 16 µg/mL	≤ 16 µg/mL			CCC(=N)NCC[C@@H]1CCC[C@@H](c2ccc(-n3cc4cc(-c5cc(CCC[C@H](C)N)cc(Cl)c5F)[nH]c4nc3=O)cc2)N1 [Compound 81]
		≤ 16 µg/mL	≤ 16 µg/mL	C[C@H](N)CCCc1cc(Cl)c(F)c(-c2cc3cn(-c4ccc(CO[C@H](CCNC(N)=O)CNC(=N)N)cc4)c(=O)nc3[nH]2)c1 [Compound 170]
≤ 16 µg/mL	≤ 16 µg/mL			Cc1nc(NCC[C@H]2CCC[C@H](c3ccc(-n4cc5cc(-c6cc(CCC[C@H](C)N)cc(OC(F)(F)F)c6F)[nH]c5nc4=O)cc3)N2)[nH]c1C [Compound 53]
> 16 µg/mL	≤ 16 µg/mL			N=C(N)NCC[C@H](CNc1ncc[nH]1)OCc1ccc(-n2cc3cc(C4CCNC4)[nH]c3nc2=O)cc1 (stereo partly drawn) [Compound 113]
≤ 16 µg/mL	≤ 16 µg/mL			C[C@H](N)CCCc1cc(Cl)c(F)c(-c2cc3cn(-c4ccc(CN[C@H](CCNC(=N)N)Cc5ncon5)cc4)c(=O)nc3[nH]2)c1 [Compound 45]
≤ 16 µg/mL	≤ 16 µg/mL			CC(=N)NC[C@@H](CCNC(=N)N)NCc1ccc(-n2cc3cc(-c4cc(CCC[C@H](C)N)cc(Cl)c4F)[nH]c3nc2=O)cc1 [Compound 67]
≤ 16 µg/mL	≤ 16 µg/mL			C[C@H](N)CCCc1cc(Cl)c(F)c(-c2cc3cn(-c4ccc([C@@H]5CCC[C@@H](C[C@@H](O)c6ccn[nH]6)N5)cc4)c(=O)nc3[nH]2)c1 [Compound 22]
> 16 µg/mL	> 16 µg/mL			N=C(N)NCC[C@@H]1C[C@@H](Nc2nccs2)C[C@@H](c2ccc(-n3cc4cc(C5CCNC5)[nH]c4nc3=O)cc2)O1 (stereo partly drawn) [Compound 125]
		≤ 16 µg/mL	≤ 16 µg/mL	CC(=N)NC[C@@H](CCNC(=N)N)OCc1ccc(-n2cc3cc(-c4cc(CCC[C@H](C)N)cc(Cl)c4F)[nH]c3nc2=O)cc1 [Compound 168]
≤ 16 µg/mL	≤ 16 µg/mL			N=C(N)NCC[C@@H]1CCC[C@@H](c2ccc(-n3cc4cc(C5CCNC5)[nH]c4nc3=O)cc2)N1 (stereo partly drawn) [Compound 100]
≤ 16 µg/mL	≤ 16 µg/mL			CC(C)C(=N)NCC[C@@H]1CCC[C@@H](c2ccc(-n3cc4cc(-c5cc(CCC[C@H](C)N)cc(Cl)c5F)[nH]c4nc3=O)cc2)N1 [Compound 82]
> 16 µg/mL	> 16 µg/mL			C=C[C@H]1C[C@@H](CCNC(=N)N)O[C@H](c2ccc(-n3cc4cc(C5CCNC5)[nH]c4nc3=O)cc2)C1 (stereo partly drawn) [Compound 79]
		≤ 16 µg/mL	≤ 16 µg/mL	N=C(N)NCC[C@H](CNC(=N)N)OCc1ccc(-n2cc3cc(-c4cc(CCC[C@@H](N)CO)cc(Cl)c4F)[nH]c3nc2=O)cc1 [Compound 163]
≤ 16 µg/mL	≤ 16 µg/mL			C[C@H](N)CCCc1cc(Cl)c(F)c(-c2cc3cn(-c4ccc([C@@H]5CCC[C@@H](CCNC(=N)CF)N5)cc4)c(=O)nc3[nH]2)c1 [Compound 85]
≤ 16 µg/mL	≤ 16 µg/mL			C[C@H](N)CCCc1cc(Cl)c(F)c(-c2cc3cn(-c4ccc(CN[C@@H](CF)CCNC(=N)N)cc4)c(=O)nc3[nH]2)c1 [Compound 107]
≤ 16 µg/mL	≤ 16 µg/mL			C[C@H](N)CCCc1cc(Cl)c(F)c(-c2cc3cn(-c4ccc(CN[C@H](CCNC(=N)N)CCc5cnc(N)s5)cc4)c(=O)nc3[nH]2)c1 [Compound 24]
		≤ 16 µg/mL	≤ 16 µg/mL	N=C(N)NCC[C@H](CNC(=N)N)OCc1ccc(-n2cc3cc(-c4cc(CCC[C@@H](N)C5CC5)cc(Cl)c4F)[nH]c3nc2=O)cc1 [Compound 164]
≤ 16 µg/mL	≤ 16 µg/mL			C[C@H](N)CCCC1CC(c2cc3cn(-c4ccc([C@H](C)NCCCNC(=N)N)cc4)c(=O)nc3[nH]2)CCN1 (stereo partly drawn) [Compound 152]
≤ 16 µg/mL	≤ 16 µg/mL			C[C@H](N)CCCc1cc(Cl)c(F)c(-c2cc3cn(-c4ccc(CO[C@H](CCNC(=N)N)CNc5ncc[nH]5)cc4)c(=O)nc3[nH]2)c1 [Compound 76]
		≤ 16 µg/mL	≤ 16 µg/mL	C[C@H](N)CCCc1cc(Cl)c(F)c(-c2cc3cn(-c4ccc(CO[C@H](CCN5CCNC5=O)CNC(=N)N)cc4)c(=O)nc3[nH]2)c1 [Compound 177]
